Source: EP2802310B1, “NEW USE OF ZERUMBONE AND COMPOSITIONS COMPRISING ZERUMBONE” (Sederma, priority 2012, dated 2013)
Where two headings read alike, the source gives them in different places.

Columns and labels:
[1] = system: HO-1; test: HO-1 synthesis by ELISA in adipocyte lysates; type: cell-based, Human; details: for activation at 3 ppm / activation at 5 ppm: Homo sapiens, Adipocyte, read-out: [HO-1] % Var / control
Protocol: HO-1 enzymes catalyse the degradation of heme into biliverdin, iron, and carbon monoxide. Its overexpression is associated with a decrease in the size of adipocytes in adipose tissue, an increase of adiponectin secretion and a decrease of IL-6 and TNF secretion and is associated with weight loss.
Human preadipocytes were seeded and induced to differentiate at confluence in the presence of a cocktail of specific inducers and the products to evaluate. After 10 days, the layers were crushed and the HO-1 content was measured in these lysates by ELISA. Furthermore after 10 days of differentiation, matiure adipocytes were placed in contact with the products for 48h and the HO-1 content was also measured in the cellular lysates. In parallel, an estimation of the cell quantification is realized on these two assays (Hoechst test).

[2] = system: Dermatopontin; test: Dermatopontin synthesis in NHF, ELISA; type: cell-based, human; details: three days
Protocol: (§1) Principle: NHFs were put into contact with the product of the invention for two days (fibromodulin) or three days (dermatopontin). The supernatants were then assayed using ELISA tests. At the same time, the number of cells was quantified using the Hoechst method.

[3] = system: Mature human adipocytes; test: Lipolytic effect, released glycerol after 3 hours; type: cell-based; details: Adipocyte, Zerumbone 6ppm, contact time 3h, read-out: released glycerol, versus negative control
Protocol: In a first test, mature human adipocytes were treated with the product to evaluate for 3 hours, then titration of the released glycerol, reflecting lipolysis, was measured in the medium.

[4] = system: mature adipocytes; test: Intracellular triglyceride quantity in mature adipocytes; type: cell-based, human; details: Zerumbone 6ppm
Protocol: (§2) Mature human adipocytes were treated with zerumbone to evaluate daily for 3 days. A daily titration of the released glycerol, reflecting lipolysis, was measured in the medium, before the media were changed in order to monitor the long-term effect.
Table 5: comparison of the intracellula triglyceride quantity found in mature adipocytes
Table 20: Comparison of the intracellular triglyceride content found in the mature adipocytes; compared effect of zerumbone, caffeine and of a mixture of zerumbone and caffeine.

[5] = system: Murine 3T3-L1 fibroblasts; test: Anti-differentiating effect on adipocytes, intracellular G3PDH activity, 3T3-L1 line; type: cell-based
Protocol: Murine 3T3-L1 fibroblasts were seeded and induced to differentiate into adipocytes for 6 days with specific inducers in the presence of the evaluated products. When mature adipocytes were obtained, layers were crushed and intracellular G3PDH ([…]) activity is measured. A cell quantification test (Hoechst) on the same extracts complements the assay.

[6] = system: MMP1; test: MMP1 synthesis in NHF after UVA, ELISA; type: cell-based, human; details: 24h before and 24h after UVA
Protocol: Principle: NHFs were put into contact with the product of the invention for 24h, and then were radiated with UVA rays to trigger an experimental increase in MMP1 synthesis. The cells once again received the product for 24h and the supernatants were assayed using ELISA tests. At the same time, the number of cells was quantified using the Hoechst method.

[7] = system: elastin; test: Elastin synthesis in fibroblasts under NO stress, ELISA; type: cell-based; details: Homo sapiens, Fibroblast, NHF, compared to the control case following the same NO, read-out: protection of elastin synthesis
[8] = system: Mature human adipocytes; test: Lipolytic effect, daily titration of released glycerol over 3 days; type: cell-based; details: Homo sapiens, Adipocyte, Zerumbone 6ppm, read-out: released glycerol, versus negative control
Protocol: as §2
In a second test, mature human adipocytes were treated with the product to evaluate daily for 3 days. A daily titration of the released glycerol was performed in the media, just before changing of the media in order to monitor the long term effect. Table 19: Comparison of the lipolytic effect of caffeine, zerumbone and of a mixture of caffeine and zerumbone on hypertrophied adipocytes in monolayer (n=4) at short and long term.

[9] = system: elastin; test: Elastin fibres in skin explants under NO stress (Verhoeff stain); details: 18 ppm
Protocol: Principle: Explants (person, abdominal skin) received a topical cream containing the product of the invention (cream according to above example 1 at 18ppm of zerumbone) or a placebo cream (same cream without zerumbone) for two days. At the same time, the culture medium received 18ppm of zerumbone in a liquid form (or its excipient) to potentiate the effects. A NO stress was later applied for 24 hours using an NO donor (NOC-5) integrated in the culture medium. Finally, the product was again applied on the explants and in the culture medium for two days.
Counting was done using photos (50 photos/case) by filtering the colours.

[10] = system: Cathepsin-S; test: Cathepsin-S in NHF under NO stress, ELISA; type: cell-based, human; details: NO stress (NOC-5)
Protocol: Principle: NHFs were put into contact with the invention product for 24h then were subjected to NO stress. NO donor, NOC-5, was introduced in the culture medium. At the end of a second 24h contact with the zerumbone extract, a cathepsin-S assay was performed using ELISA. At the same time, the number of cells was quantified using the Hoechst method.

[11] = system: Human preadipocytes; test: Triglyceride content after preadipocyte differentiation (glycerol released after lipase); type: cell-based; details: 10 days
Protocol: Human preadipocytes were plated and induced to differentiate at confluence in the presence of a cocktail of specific inducers and evaluated products. After 10 days, the triglyceride content of the culture was estimated by measuring the released glycerol after the action of a lipase.

[12] = system: Fibromodulin; test: Fibromodulin synthesis in NHF, ELISA; type: cell-based, human; details: two days
Protocol: as §1

[13] = system: elastase; test: Dermal destruction by proteases in skin explants, elastase; details: 18ppm of zerumbone co-injected with the protease; five days at 37°C; confocal microscope
Protocol: Principle: Once prepared, skin explants (person, abdominal skin) received an injection of elastase or collagenase that could proteolyse 30 µmol/min of elastin or collagen. In another case, the invention product (titrated at 18ppm of zerumbone) was co-injected with the protease to assess its ability to inhibit the proteolysis of constituents of the dermis, and thus of protection of the dermis. After five days of incubation at 37°C, the result was observed through a confocal microscope and compared to what was obtained in the case without protease at the same depth (60 µm).

C/C1=C\CC(C)(C)/C=C/C(=O)/C(C)=C/CC1 [Zerumbone, 2E, 6E, 9E-Humulatrien-8-one]
[HO-1] ([1]; 3ppm, adipocytes in the course of differenciation (10days)): 51658 +/- 7985 ng/ 10^6 cell | [HO-1] ([1]; 3ppm, mature adipocytes (48h)): 70229 +/- 10638 ng/ 10^6 cell | [HO-1] ([1]; 5ppm, adipocytes in the course of differenciation (10days)): 67243 +/- 11428 ng/ 10^6 cell | [HO-1] ([1]; 5ppm, mature adipocytes (48h)): 96700 +/- 4548 ng/ 10^6 cell | activation at 3 ppm ([1]; 240 h, 3ppm, adipocytes in the course of differenciation (10days)): 29% | activation at 5 ppm ([1]; 240 h, 5ppm, adipocytes in the course of differenciation (10days)): 68% | activation at 3 ppm ([1]; 3ppm, mature adipocytes (48h)): 142% | activation at 5 ppm ([1]; 5ppm, mature adipocytes (48h)): 233% | Dermatopontin ([2]; 5 ppm): 2540 ± 361 ng/106cell. | activation at 5 ppm ([2]; Homo sapiens, 72 h, read-out: Dermatopontin % Variation): 137% | activation at 6 ppm [3]: 0% | inhibition at 6 ppm ([4]; Homo sapiens, Adipocyte, 72 h, read-out: Triglycerides Variation (%)): 37% | Triglycerides [4]: 4947 ± 236 µM/10^6cell. | Triglycerides Variation (%) ([4]; 4320 min): -37%; p<0.01 | [G3PDH] ([5]; 1ppm, differentiation for 6 days): 304.2 +/- 9.9 mU/ 10^6 cell | cytotoxicity ([5]; 3T3-L1, tested doses): without apparent cytotoxicity | [G3PDH] ([5]; 3ppm, differentiation for 6 days): 79.3 +/- 43.6 mU/ 10^6 cell | differentiation of 3T3-L1 ([5]; 5ppm): total inhibition | [G3PDH] ([5]; 5ppm, differentiation for 6 days): 3.4+/-10.3 mU/ 10^6 cell | inhibition at 1 ppm ([5]; Mus musculus, 3T3-L1, 144 h, 1ppm, differentiation for 6 days, read-out: [G3PDH] % Var / control): 53% | inhibition at 3 ppm ([5]; Mus musculus, 3T3-L1, 144 h, 3ppm, differentiation for 6 days, read-out: [G3PDH] % Var / control): 88% | inhibition at 5 ppm ([5]; Mus musculus, 3T3-L1, 144 h, 5ppm, differentiation for 6 days, read-out: [G3PDH] % Var / control): 99% | MMP1 ([6]; 5 ppm): 691 ± 225 ng/106cell. | inhibition at 5 ppm ([6]; Homo sapiens, Fibroblast, light or radiation study, read-out: MMP1 % Variation): 51% | activation at 5 ppm [7]: 179% | activation at 6 ppm ([8]; 24 h, contact time 1 day): 72% | activation at 6 ppm ([8]; 48 h, contact time 2 days): 141% | activation at 6 ppm ([8]; 72 h, contact time 3 days): 246% | Elastin ([9]; cream and culture medium, NO stress (NOC-5) 24 hours): 2.41 ± 1.40 UCA | Elastin % Variation ([9]; versus Control NO (Reference 2)): +104%; p<0.01 | Cathepsin-S ([10]; 5 ppm): 290 ± 40 pg/106cell. | inhibition at 5 ppm ([10]; Homo sapiens, Fibroblast, read-out: Cathepsin-S % Variation): 34% | [TG] ([11]; 3ppm): 3562 +/- 233 µ U/ 10^6 cell | [TG] ([11]; 5ppm): 2966 +/- 128 µ U/ 10^6 cell | inhibition at 3 ppm ([11]; Homo sapiens, 240 h, 3ppm, read-out: [TG] % Var / control): 15% | inhibition at 5 ppm ([11]; Homo sapiens, 240 h, 5ppm, read-out: [TG] % Var / control): 29% | Fibromodulin ([12]; 5 ppm): 51.4 ± 13.4 ng/106cell. | activation at 5 ppm ([12]; Homo sapiens, 48 h, read-out: Fibromodulin % Variation): 268% | integrity of the dermis under elastase stress [13]: retains its integrity
